Test results: patent US20240287147A1, “PD-L1 BINDING PEPTIDES AND PEPTIDE COMPLEXES AND METHODS OF USE THEREOF” (Fred Hutchinson Cancer Center, priority 2020, published 2024)

Tested on: PC3 tumors
Settings: PC3, second cohort, T cells + 1 nmol or 0.1 nmol

For durvalumab, the “effect on PC3 flank tumors” value was “no effect”.
